Data on 3 compounds can be found in US20060069074A1, “Genetic predictor of efficacy of anti-asthmatic agents for improving pulmonary function” (priority 2004, published 2006).

Test [1] can be described thus: Double-blind randomized crossover trial of montelukast and fluticasone propionate in children with asthma; FEV1 response by B2AR diplotype. In kind it is in vivo, human. Conditions: all children, 8-week treatment periods. From the text:
(§1) Briefly, 144 children ages 6 to 17 years with mild to moderate persistent asthma were enrolled. […] Children with severe asthma were excluded. Strunk R, et al., supra. Informed consent, approved by the Institutional Review Board of the subject's respective study institution, was obtained from a parent/guardian.

Test [2] can be described thus: Baseline methacholine challenge (PC20) by B2AR diplotype. Type of test: in vivo, human. Conditions: for Methacholine PC20: geometric mean (95% CI), corrected for baseline percent predicted FEV1.
Excerpt: as §1

Test [3] relates to β2-adrenergic receptor (B2AR). Conditions: cited from earlier work.

As for `CCC(=O)O[C@]1(C(=O)SCF)[C@H](C)C[C@H]2[C@@H]3C[C@H](F)C4=CC(=O)C=C[C@]4(C)[C@@]3(F)[C@@H](O)C[C@@]21C` [fluticasone, fluticasone propionate], in test [1], the “Fraction of children with FEV1 response to fluticasone but not to montelukast” value is reported as “one-fourth”.

`CC(=O)OC(C)C[N+](C)(C)C` (stereo not shown) [methacholine]: the “Methacholine PC20” value is recorded as 0.6 (0.3, 1.1) mg/ml in test [2] (4/4 diplotype, n=18) and 1.4 (1.1, 1.7) mg/ml in test [2] (all other diplotypes, n=106). Further, the “Dose of methacholine causing a 20% fall in FEV1, difference between groups” value in test [2] (lower in the 4/4 diplotype than in the other diplotypes, adjusted for baseline percent predicted FEV1, p=0.015) was 1.3 doubling doses.

With `CC(C)(C)NCC(O)c1ccc(O)c(CO)c1` (stereo not shown) [albuterol], in test [3] (carriers of the Arg16 allele vs carriers of the Gly16 allele, subjects naïve to B2AR-agonists), the “Immediate bronchial responses to albuterol” value is “higher immediate responses”. The “Bronchodilator response (improvement in FEV1) to albuterol” value in test [3] (diplotype 4/6, Drysdale et al.) is “highest response”. For the same compound, the “Lung function on regularly scheduled albuterol” value in test [3] (homozygotes for Arg16 compared with carriers of the other two genotypes) is listed as “significant deterioration in lung function”.
